Test system: reconstituted Human Corneal Epithelium (HCE)
Experiment: Preliminary cytotoxicity: modified MTT viability test on reconstituted HCE
Assay type: cell-based
Conditions: for MTT: Cellular viability (%): relative to negative control
Protocol: An initial study on human corneal epithelium (HCE) was conducted to check the cytotoxicity of a selection of tear substitutes in order to further assess their protection against superficial corneal epithelium oxidative stress damages induced by UVA+B light (290-400 nm).
The preliminary cytotoxicity was performed after 4 h acute exposure and after 8 h exposure (repeated twice a day with the final readout the day after; 0.015 J/cm^2) to tear substitutes using 2 assays: MTT test and TUNEL assay.
The preliminary cytotoxicity was tested in vitro for the following tear substitutes: • Composition according to Example I • Visu XL (market reference containing 0.1% Coenzyme Q10, 0.1% cross-linked hyaluronic acid (HA), 0.5% Vitamin E TPGS; pH 6.9) on the HCE model compared to Benzalkonium Chloride (BAK) 0.1% solution (positive control) and saline solution (NaCl 0.9%; negative control).
An EPISKIN reconstituted Human Corneal Epithelium (HCE) of 0.5 cm^2 was used for the evaluation. Epithelial human Immortalized cells (HICEC) were deposed on a polycarbonate filter and cultured at the air-liquid interface for 5 days in a chemically defined medium in order to form a structured epithelium. The inserts containing the tissues at day 5 (thickness: 55 μm; 5.5 cell layers) were shipped at room temperature in a multi-well plate filled with an agarose nutrient solution in which they were embedded.
The HCEs were placed in 6 well plates with 1 mL maintenance medium overnight in incubator CO2 at 37° C. and 90% humidity. The tissues were then used the day after, following acute 4 h exposure and 8 h repeated exposure and overnight protocol. […]
Two exposure protocols were carried on: • acute exposure protocol (4 h): 4 h exposure followed by tissues rinsing • repeated exposure and overnight protocol (8 h+overnight): twice daily exposure, with at least 4 hours between the two treatments and readout after overnight incubation. […]
The Accuracy of the spectro-photometrical measurements are in the range between 0 and 2 OD: <+/−(1%+10 mOD). The Raw data of OD are directly recorded in the Microplate autoreader (TECAN INFINITE M-200) further processed by Software Magellan 6.5.
The mean of blank OD has been subtracted to every single OD value. The viability of each biological replicate has been calculated dividing the respective OD mean for the optical density average of the negative control (NC) Biological Replicates. The viability % mean of tissues treated with the same substance has been calculated. […]
Test substance meets the acceptance criteria if the Standard Deviation value (SD) of the cell viability % (expressed as percentage compared to NC) between the 2 tissue replicates is <18%.

## Benzalkonium Chloride [BAK 0.1%]
4 H acute exposure
  MTT: Cellular viability (%): 9.98%
8 H+ OVERNIGHT repeated exposure
  MTT: Cellular viability (%): 0.95%
4 h acute exposure
  Cytotoxicity by MTT test (in words): severe cytotoxicity
8 h followed by overnight incubation, cut-off 60% cell viability
  Cytotoxicity by MTT test (in words): severe cytotoxicity

Source: patent publication US20250325497A1, “OPHTHALMIC COMPOSITION COMPRISING RESVERATROL FOR TREATING DRY EYE SYNDROME” (Laboratoires THEA, priority 2022, published 2025)
